Measurements taken from patent US20100130612A1, “COMPOSITION CONTAINING CHITOSAN FOR SUSTAINED DRUG RELEASE” (THE JORDANIAN PHARMACEUTICAL MANUFACTURING CO., priority 2005, published 2010).

Experiment: Solubility of acidic drugs in acidic media when combined with chitosan polymer solution
Assay type: physicochemical
Details: pH<5.0; combined with a respective chitosan polymer solution

solubility in acidic media (in words) | Compound
soluble in acidic media | O=C(O)Cc1ccccc1Nc1c(Cl)cccc1Cl [diclofenac sodium]
soluble in acidic media | CC(C)Cc1ccc(C(C)C(=O)O)cc1.[Na] (centres unmarked) [ibuprofen sodium]
